In patent publication US20100056522A1, “INTRAOCULAR PRESSURE-LOWERING AGENT COMPRISING COMPOUND HAVING HISTONE DEACETYLASE INHIBITOR EFFECT AS ACTIVE INGREDIENT” (Santen Pharmaceutical Co., Ltd., priority 2007, published 2010):

How the values were obtained:
[1] = system: HDAC (HeLa nuclear extract); test: Test for evaluation of an HDAC inhibitory effect (HDAC Fluorimetric Assay/Drug Discovery Kit, Biomol); assay type: biochemical; settings: final concentration of test compound 30 μM, rates of more than 100% are shown as 100%
Protocol: Using HDAC Fluorimetric Assay/Drug Discovery Kit (manufactured by Biomol), an HDAC inhibitory effect of the present compounds was measured according to the protocol included with the kit. The kit contains Buffer, HeLa nuclear extract (includes an HDAC), Substrate, Developer and Trichostatin A (an HDAC inhibitor).
A test compound was dissolved in dimethyl sulfoxide, whereby a 2 mg/mL solution was prepared. Then, the resulting solution was diluted with Buffer containing 5% dimethyl sulfoxide, whereby a 150 μM test compound solution was prepared.
1) To a 384-well culture plate, the test compound solution was added in an amount of 2 μL per well.
2) HeLa nuclear extract was diluted 30-fold with Buffer. The resulting solution was added in an amount of 3 μL per well and then, incubation was performed at 37° C. for 2 hours.
3) Substrate was diluted 500-fold with Buffer. The resulting solution was added in an amount of 5 μL per well (the final concentration of the test compound was 30 μM) and then, incubation was performed at 37° C. for 10 minutes.
4) Developer was diluted 20-fold with Buffer and Trichostatin A (2 μM) was added to it. The resulting solution was added in an amount of 10 μL per well and then, incubation was performed at room temperature for 15 minutes.
5) The fluorescence intensity of each well was measured using multilabel counter ARVO (manufactured by Wallac) with excitation at 360 nm and emission at 460 nm.
6) A control data was obtained from the same experiment except that Buffer containing 5% DMSO was added instead of the test compound solution as the above-mentioned procedure from 1) to 5).
7) A blank data was obtained from the same experiment except that Buffer containing 5% DMSO was added instead of the test compound solution and that Buffer was added instead of Hela nuclear extract as the above-mentioned procedure from 1) to 5).
Enzyme inhibitory rate (%) was calculated using the following equation.
(Enzyme Inhibitory Rate(%))=100×[1−{(Fluorescence Intensity of Test Compound Solution)−(Florescence Intensity of Blank)}/{(Florescence Intensity of Control)−(Florescence Intensity of Blank)}]

[2] = system: TM-1 cells (human trabecular meshwork cell line); test: Test for evaluation of effect of morphological change on trabecular meshwork cells (cell shape index); assay type: cell-based; settings: 10 μM, 24 hours, control CSI 0.679, lower CSI indicates greater morphological change
Protocol: As a method for evaluating a cellular morphological change, an evaluation system using the cell shape index (hereinafter referred to as “CSI”) as an index has been reported in The Journal of Clinical Investigation, 103, 1141-1150 (1999). Therefore, according to the method described in the above document, an effect of morphological change by the present compounds on trabecular meshwork cells was evaluated.
A human trabecular meshwork cell line (hereinafter referred to as “TM-1 cells”) reported in Investigative Opthalmology & Visual Science, 43, 151-161 (2002) was used.
Culture medium 1: A reagent was prepared by adding fetal bovine serum (10%), L-glutamine (2 mM), amphotericin B (2.5 μg/mL), and gentamicin (25 μg/mL) to Dulbecco's Modified Eagle Medium (hereinafter referred to as “D-MEM”).
Culture medium 2: Fetal bovine serum (3%), L-glutamine (2 mM), amphotericin B (2.5 μg/mL), and gentamicin (25 μg/mL) were added to D-MEM.
Cell staining liquid: A mixed liquid of Calcein-AM (16 μM) and Hoechst 33342 (40 μM) was prepared by diluting a Calcein-AM solution (cytoplasmic staining reagent, manufactured by Dojindo Laboratories) and a Hoechst 33342 solution (nuclear staining reagent, manufactured by Dojindo Laboratories) with D-MEM containing L-glutamine (2 mM), amphotericin B (2.5 μg/mL), and gentamicin (25 μg/mL).
TM-1 cells subcultured at 37° C. in a 8% carbon dioxide gas atmosphere were treated with a trypsin/EDTA solution (0.05% trypsin and 0.53 mM tetrasodium ethylenediaminetetraacetate) at 24 hours before performing a drug treatment mentioned below and seeded on a 96-well culture plate. The culture medium 1 was used for the subculture of the cells. The culture medium 2 was used for the cell culture after seeding the cells on the plate.
A test compound was dissolved in dimethyl sulfoxide, whereby a 5 mM solution was prepared. Then, the resulting solution was diluted with the culture medium 2, whereby a 200 μM test compound solution was prepared.
It has been reported that Y-27632 which is a Rho kinase inhibitor induces a morphological change in trabecular meshwork cells in Investigative Opthalmology & Visual Science, 42, 137-144 (2001). Therefore, Y-27632 (produced according to the method described in WO 90/05723) was used as a positive control, and dissolved in dimethyl sulfoxide in the same manner as the test compound, whereby a 5 mM solution was prepared, and then, the resulting solution was diluted with the culture medium 2, whereby a 200 μM positive control compound solution was prepared.
1) To a 96-well culture plate, a solution of TM-1 cells adjusted to a cell density of […] was added in an amount of 95 μL (1.5×10^4 cells) per well.
2) Incubation was performed at 37° C. in a 8% carbon dioxide gas atmosphere for 24 hours.
3) The test compound solution or positive control compound solution was added in an amount of 5 μL per well (the final concentration of the test compound or positive control compound was 10 μM). As a control, the culture medium 2 containing dimethyl sulfoxide (4%) was added in an amount of 5 μL per well.
4) Incubation was performed at 37° C. in a 8% carbon dioxide gas atmosphere for 24 hours.
5) The cell staining liquid was added in an amount of 10 μL per well.
6) Incubation was performed at 37° C. in a 8% carbon dioxide gas atmosphere for 1 hour to stain the cells.
7) A 37% formaldehyde solution was added in an amount of 10 μL per well.
8) Incubation was performed at room temperature for 1 hour to fix the cells.
9) Washing with phosphate-buffered saline was performed.
10) Using Array Scan Vti HCS reader (manufactured by Cellomics), images of stained cells magnified with a 20-fold objective lens were captured in 80 fields (10 fields×8 wells) per test compound addition group.
11) CSI was calculated for each cell and an average value was obtained for each test compound addition group.
CSI was calculated using the following equation.
CSI=4π×(Cell Area)/(Cell Perimeter)^2

Enzyme Inhibitory Rate (%) [1]	SMILES	CSI [2]
97%	CN1CCN(CCN(Cc2ccc(C(=O)Nc3ccccc3N)nc2)C(=O)Nc2cccc(F)c2)CC1 [Compound 1-63, N-(2-Aminophenyl)-5-[3-(3-fluorophenyl)-1-[2-(4-methylpiperazin-1-yl)ethyl]ureidomethyl]pyridine-2-carboxylic acid amide]	0.521
98%	Cc1cccc(NC(=O)N(CCN(C)C)Cc2ccc(C(=O)Nc3ccccc3N)nc2)c1 [Compound 1-79, N-(2-Aminophenyl)-5-[1-(2-dimethylaminoethyl)-3-(3-methylphenyl)ureidomethyl]pyridine-2-carboxylic acid amide]	0.497
98%	CN(C)CCN(Cc1ccc(C(=O)Nc2ccccc2N)nc1)C(=O)Nc1ccc2c(c1)OCCO2 [Compound 1-53, N-(2-Aminophenyl)-5-[3-(2,3-dihydrobenzo[1,4]dioxin-6-yl)-1-(2-dimethylaminoethyl)ureidomethyl]pyridine-2-carboxylic acid amide]	0.502
100%	CN(C)CCCN(Cc1ccc(C(=O)Nc2ccccc2N)nc1)C(=O)Nc1nc2ccccc2s1 [Compound 1-30, N-(2-Aminophenyl)-5-[3-(1,3-benzothiazol-2-yl)-1-(3-dimethylaminopropyl)ureidomethyl]pyridine-2-carboxylic acid amide]	0.564
98%	Nc1ccccc1NC(=O)c1ccc(CN(CCCCN2CCOCC2)C(=O)Nc2ccc3c(c2)OCCO3)cn1 [Compound 1-90, N-(2-Aminophenyl)-5-[3-(2,3-dihydrobenzo[1,4]dioxin-6-yl)-1-[4-(morpholin-4-yl)butyl]ureidomethyl]pyridine-2-carboxylic acid amide]	0.480
100%	Cc1cccc(NC(=O)N(CCCN2CCC(C)CC2)Cc2ccc(C(=O)Nc3ccccc3N)nc2)c1 [Compound 1-116, N-(2-Aminophenyl)-5-[3-(3-methylphenyl)-1-[3-(4-methylpiperidin-1-yl)propyl]ureidomethyl]pyridine-2-carboxylic acid amide]	0.455
100%	COc1ccc(NC(=O)N(CCCN(C)C)Cc2ccc(C(=O)Nc3ccccc3N)nc2)cc1 [Compound 1-6, N-(2-Aminophenyl)-5-[1-(3-dimethylaminopropyl)-3-(4-methoxyphenyl)ureidomethyl]pyridine-2-carboxylic acid amide]	0.549
98%	COc1ccc2nc(NC(=O)N(CCCN(C)C)Cc3ccc(C(=O)Nc4ccccc4N)nc3)sc2c1 [Compound 1-42, N-(2-Aminophenyl)-5-[1-(3-dimethylaminopropyl)-3-(6-methoxy-1,3-benzothiazol-2-yl)ureidomethyl]pyridine-2-carboxylic acid amide]	0.536
96%	N#Cc1ccc(NC(=O)N(CCCO)Cc2ccc(C(=O)Nc3ccccc3N)nc2)cc1 [Compound 1-24, N-(2-Aminophenyl)-5-[3-(4-cyanophenyl)-1-(3-hydroxypropyl)ureidomethyl]pyridine-2-carboxylic acid amide]	0.597
100%	CN(C)CCCN(Cc1ccc(C(=O)Nc2ccccc2N)nc1)C(=O)Nc1ccc2c(c1)OCCO2 [Compound 1-2, N-(2-Aminophenyl)-5-[3-(2,3-dihydrobenzo[1,4]dioxin-6-yl)-1-(3-dimethylaminopropyl)ureidomethyl]pyridine-2-carboxylic acid amide]	0.516
100%	Nc1ccccc1NC(=O)c1ccc(CN(CCCN2CCOCC2)C(=O)NCCc2ccccc2)cn1 [Compound 1-3, N-(2-Aminophenyl)-5-[1-[3-(morpholin-4-yl)propyl]-3-phenethylureidomethyl]pyridine-2-carboxylic acid amide]	0.569
97%	Nc1ccccc1NC(=O)c1ccc(CN(CCCN2CCOCC2)C(=O)Nc2ccc3c(c2)CCO3)cn1 [Compound 1-38, N-(2-Aminophenyl)-5-[3-(2,3-dihydro-1-benzofuran-5-yl)-1-[3-(morpholin-4-yl)propyl]ureidomethyl]pyridine-2-carboxylic acid amide]	0.575
97%	COc1ccccc1NC(=O)N(CCCCN1CCOCC1)Cc1ccc(C(=O)Nc2ccccc2N)nc1 [Compound 1-115, N-(2-Aminophenyl)-5-[3-(2-methoxyphenyl)-1-[4-(morpholin-4-yl)butyl]ureidomethyl]pyridine-2-carboxylic acid amide]	0.467
99%	CN(C)CCCN(Cc1ccc(C(=O)Nc2ccccc2N)nc1)C(=O)Nc1nc2ccccc2[nH]1 [Compound 1-31, N-(2-Aminophenyl)-5-[3-(1H-benzimidazol-2-yl)-1-(3-dimethylaminopropyl)ureidomethyl]pyridine-2-carboxylic acid amide]	0.551
97%	CN(C)CCCN(Cc1ccc(C(=O)Nc2ccccc2N)nc1)C(=O)NCC(=O)c1ccccc1 [Compound 1-40, N-(2-Aminophenyl)-5-[1-(3-dimethylaminopropyl)-3-(phenylcarbonylmethyl)ureidomethyl]pyridine-2-carboxylic acid amide]	0.572
98%	CN(C)c1ccc(NC(=O)N(CCCN2CCOCC2)Cc2ccc(C(=O)Nc3ccccc3N)nc2)cc1 [Compound 2-1, N-(2-Aminophenyl)-5-[3-(4-dimethylaminophenyl)-1-[3-(morpholin-4-yl)propyl]ureidomethyl]pyridine-2-carboxylic acid amide]	0.574
100%	Cc1cc(NC(=O)N(CCCN(C)C)Cc2ccc(C(=O)Nc3ccccc3N)nc2)ccc1F [Compound 1-14, N-(2-Aminophenyl)-5-[1-(3-dimethylaminopropyl)-3-(4-fluoro-3-methylphenyl)ureidomethyl]pyridine-2-carboxylic acid amide]	0.520
